Measurements as given in patent US12162858B2, “Quinoline derivatives as inhibitors of AXL/MER RTK and CSF1R” (QURIENT CO., LTD., priority 2018, dated 2024).

Experiments:
Axl = target: T1, Axl (Homo sapiens, UniProt P30530); experiment: Cellular Axl inhibition ELISA (p-Axl, Gas6-induced) using H1299 cells; assay type: cell-based; design: especially H1299 cell endogenously expresses Axl; endogenous in cells; host or cells: H1299; conditions: read-out: Cellular Axl activity by H1299 Elisa (IC50)
T1 sequence (P30530 26-894): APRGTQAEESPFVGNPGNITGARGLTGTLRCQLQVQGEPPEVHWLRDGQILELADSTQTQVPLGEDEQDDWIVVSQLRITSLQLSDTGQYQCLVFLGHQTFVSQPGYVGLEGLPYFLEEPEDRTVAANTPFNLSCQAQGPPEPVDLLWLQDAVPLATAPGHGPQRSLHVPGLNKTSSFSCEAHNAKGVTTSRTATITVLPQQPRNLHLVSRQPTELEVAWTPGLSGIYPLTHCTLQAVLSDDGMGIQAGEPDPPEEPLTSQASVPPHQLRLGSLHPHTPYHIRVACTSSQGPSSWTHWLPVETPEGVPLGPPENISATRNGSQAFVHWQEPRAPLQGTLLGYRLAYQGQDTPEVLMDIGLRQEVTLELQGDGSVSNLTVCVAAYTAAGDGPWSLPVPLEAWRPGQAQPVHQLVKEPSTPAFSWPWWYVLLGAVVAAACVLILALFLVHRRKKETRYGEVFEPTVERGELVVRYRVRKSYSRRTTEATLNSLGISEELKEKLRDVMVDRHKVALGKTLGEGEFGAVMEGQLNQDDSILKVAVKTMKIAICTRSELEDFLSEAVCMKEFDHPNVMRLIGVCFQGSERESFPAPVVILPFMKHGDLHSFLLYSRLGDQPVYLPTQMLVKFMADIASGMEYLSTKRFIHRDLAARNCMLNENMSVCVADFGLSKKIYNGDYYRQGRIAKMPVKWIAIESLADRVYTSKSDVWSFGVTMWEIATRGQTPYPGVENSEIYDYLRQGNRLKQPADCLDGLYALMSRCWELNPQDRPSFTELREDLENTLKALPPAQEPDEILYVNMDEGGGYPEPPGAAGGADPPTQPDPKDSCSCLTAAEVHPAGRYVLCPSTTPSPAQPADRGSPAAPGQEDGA
In short: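 H1299 cells, seeded overnight, exposed 24 h at 37 °C to 10-point 3-fold compound dilutions, then stimulated with 200 ng/ml human Gas6 (final) for 1 h. Lysates assayed for p-Axl by sandwich ELISA with HRP/TMB, absorbance 450 nm; IC50 by sigmoidal dose-response fit.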

CSF1R (M-NFS-60 cells) = experiment: Cell Titer-Glo viability assay using M-NFS-60 cells; assay type: cell-based; conditions: Mus musculus, read-out: Cellular CSF1R activity by M-NFS-60 viability assay (IC50 activity range)
In short: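 M-NFS-60 cells grown with 62 ng/ml recombinant human M-CSF, seeded at 2×10^5 cells/well and incubated at 37 °C/5% CO2. Compounds given as 3-fold serial dilutions (10 doses); viability read by CellTiter-Glo luminescence, sigmoidal dose-response fit.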

SMILES | IC50 (Axl) [nM] | IC50 (CSF1R (M-NFS-60 cells)) [nM]
CCCn1cc(OCC2CCC2)c(C(=O)Nc2ccc(Oc3ccnc4cc(OC)c(OC(F)(F)F)cc34)cn2)n1 [Compound 167] | < 500 | 1000 to 10000
COc1cc2nccc(Oc3ccc(NC(=O)c4nn(CCO)cc4OCC(F)(F)F)nc3)c2cc1OC [Compound 67] | < 500 | 1000 to 10000
COc1cc2nccc(Oc3ccc(NC(=O)c4nn(C5CCC5)cc4OCC(F)(F)F)nc3)c2cc1OC [Compound 24] | < 500 | < 1000
COc1cc2nccc(Oc3ccc(NC(=O)c4nn(C5CCCC5)cc4OCC(F)(F)F)cc3)c2cc1OC [Compound 60] | < 500 | 1000 to 10000
CCCn1cc(OCC(F)(F)F)c(C(=O)Nc2ccc(Oc3ccnc4cc(OC)c(OC)cc34)nn2)n1 [Compound 32] | < 500 | 1000 to 10000
COc1cc2nccc(Oc3ccc(NC(=O)c4nc(CCC(F)(F)F)oc4CCC4CCC4)nc3)c2cc1OC [Compound 176] | < 500 | 1000 to 10000
CCCn1cc(OCCC(F)(F)F)c(C(=O)Nc2ccc(Oc3ccnc4cc(OC)c(OC)cc34)cn2)n1 [Compound 31] | < 500 | < 1000
CCCn1cc(OCC(F)(F)F)c(C(=O)Nc2ccc(Oc3ccnc4cc(OC)c(OC)cc34)cc2)n1 [Compound 38] | < 500 | < 1000
CCCn1cc(OCCF)c(C(=O)Nc2ccc(Oc3ccnc4cc(OC)c(OC)cc34)cn2)n1 [Compound 14] | < 500 | < 1000
COc1cc2nccc(Oc3ccc(NC(=O)c4nn(CCO)cc4OCC(F)(F)F)cc3C)c2cc1OC [Compound 56] | ≥ 1000 | < 1000
COc1cc2nccc(Oc3ccc(NC(=O)c4nn(CC(C)C)cc4OCC(F)(F)F)cc3C)c2cc1OC [Compound 58] | < 500 | 1000 to 10000
COc1cc2nccc(Oc3ccc(NC(=O)c4nn(C5CC5)c(C(C)=O)c4OCC(F)(F)F)nc3)c2cc1OC [Compound 3] | < 500 | ≥ 10000
COc1cc2nccc(Oc3ccc(NC(=O)c4nn(CC5CCCC5)cc4OCC(F)(F)F)nc3)c2cc1OC [Compound 71] | < 500 | 1000 to 10000
COCCn1cc(OCC(F)(F)F)c(C(=O)Nc2ccc(Oc3ccnc4cc(OC)c(OC)cc34)cc2)n1 [Compound 61] | < 500 | 1000 to 10000
COc1cc2nccc(Oc3ccc(NC(=O)c4cc(C5CC5)cnc4OCC(F)(F)F)nc3)c2cc1OC [Compound 178] | < 500 | < 1000
CCCn1cc(OC(C)C)c(C(=O)Nc2ccc(Oc3ccnc4cc(OC)c(OC(F)(F)F)cc34)c(F)c2)n1 [Compound 35] | ≥ 1000 | 1000 to 10000
COc1cc2nccc(Oc3ccc(NC(=O)c4nn(CCC(F)(F)F)cc4OCC4CCC4)nc3)c2cc1OC [Compound 166] | < 500 | 1000 to 10000
COc1cc2nccc(Oc3ccc(NC(=O)c4nn(C5CCCC5)cc4OCC(F)(F)F)nc3)c2cc1OC [Compound 40] | < 500 | < 1000
COCCn1cc(OCC(F)(F)F)c(C(=O)Nc2ccc(Oc3ccnc4cc(OC)c(OC)cc34)c(F)c2)n1 [Compound 54] | < 500 | < 1000
COc1cc2nccc(Oc3ccc(NC(=O)c4nn(C5CCNC5)cc4OCC(F)(F)F)c(F)c3)c2cc1OC (stereo not shown) [Compound 74] | < 500 | 1000 to 10000
COc1cc2nccc(Oc3ccc(NC(=O)c4nn(C5CCOC5)cc4OCC(F)(F)F)nc3)c2cc1OC (stereo not shown) [Compound 13] | < 500 | < 1000
COc1cc2nccc(Oc3ccc(NC(=O)c4nn(CC(C)(F)F)cc4OCC(F)(F)F)nc3)c2cc1OC [Compound 64] | < 500 | 1000 to 10000
COc1cc2nccc(Oc3ccc(NC(=O)c4nn(CCNC5CC5)cc4OCC(F)(F)F)nc3)c2cc1OC [Compound 168] | < 500 | < 1000
COCCn1cc(OCC(F)(F)F)c(C(=O)Nc2ccc(Oc3ccnc4cc(OC)c(OC)cc34)cc2F)n1 [Compound 49] | < 500 | 1000 to 10000
CCCn1cc(OCC(F)(F)F)c(C(=O)Nc2ccc(Oc3ccnc4cc(OC)c(OC)cc34)c(F)c2)n1 [Compound 25] | < 500 | 1000 to 10000

SMILES | IC50 (Axl) [nM] | IC50 (CSF1R (M-NFS-60 cells)) [nM]
COc1cc2nccc(Oc3ccc(NC(=O)c4nn(CC(C)O)cc4OCC(F)(F)F)nc3)c2cc1OC (stereo not shown) [Compound 17] | < 500 | < 1000
COc1cc2nccc(Oc3ccc(NC(=O)c4nn(CC(C)O)cc4OCC(F)F)nc3)c2cc1OC (stereo not shown) [Compound 175] | < 500 | < 1000
COc1cc2nccc(Oc3ccc(NC(=O)c4nn(CCO)cc4OCC(F)(F)F)c(F)c3)c2cc1OC [Compound 46] | < 500 | 1000 to 10000
COc1cc2nccc(Oc3ccc(NC(=O)c4nn(CC5CC5)cc4OCC(F)(F)F)nc3)c2cc1OC [Compound 41] | < 500 | < 1000
COc1cc2nccc(Oc3ccc(NC(=O)c4nn(C5CCOC5)cc4OCC(F)(F)F)cc3F)c2cc1OC (stereo not shown) [Compound 55] | < 500 | 1000 to 10000
COc1cc2nccc(Oc3ccc(NC(=O)c4nn(CCOC5CCC5)cc4OCC(F)(F)F)nc3)c2cc1OC [Compound 65] | < 500 | 1000 to 10000
COc1cc2nccc(Oc3ccc(NC(=O)c4nn(C5CCCC5)cc4OCC(F)(F)F)cc3C)c2cc1OC [Compound 57] | < 500 | < 1000
COc1cc2nccc(Oc3ccc(NC(=O)c4nn(CCCO)cc4OCC(F)(F)F)nc3)c2cc1OC [Compound 18] | < 500 | < 1000
COc1cc2nccc(Oc3ccc(NC(=O)c4nn(C[C@@H](C)O)cc4OCC(F)(F)F)nc3)c2cc1OC [Compound 29] | < 500 | < 1000
COc1cc2nccc(Oc3ccc(NC(=O)c4nn(CC5CCOC5)cc4OCC(F)(F)F)nc3)c2cc1OC (stereo not shown) [Compound 44] | < 500 | < 1000
CCCn1cc(OCC(F)(F)F)c(C(=O)Nc2ccc(Oc3ccnc4cc(OC)c(OC)cc34)c(C)c2)n1 [Compound 26] | < 500 | 1000 to 10000
COc1cc2nccc(Oc3ccc(NC(=O)c4nn(C)cc4OCC(F)(F)F)cc3C)c2cc1OC [Compound 37] | ≥ 1000 | < 1000
COc1cc2nccc(Oc3ccc(NC(=O)c4nn(CCO)cc4OCC(F)(F)F)cc3)c2cc1OC [Compound 59] | < 500 | < 1000
CCCn1cc(N(C)CC2CCOCC2)c(C(=O)Nc2ccc(Oc3ccnc4cc(OC)c(OC)cc34)cn2)n1 [Compound 34] | ≥ 1000 | 1000 to 10000
COc1cc2nccc(Oc3ccc(NC(=O)c4nn(CC5CCNC5)cc4OCC(F)(F)F)nc3)c2cc1OC (stereo not shown) [Compound 72] | ≥ 1000 | 1000 to 10000
COc1cc2nccc(Oc3ccc(NC(=O)c4nn(CC(C)C)cc4OCC(F)(F)F)cc3F)c2cc1OC [Compound 53] | < 500 | < 1000
CCCn1cc(OCCC(O)CO)c(C(=O)Nc2ccc(Oc3ccnc4cc(OC)c(OC)cc34)cn2)n1 (stereo not shown) [Compound 15] | ≥ 1000 | 1000 to 10000
COc1cc2nccc(Oc3ccc(NC(=O)c4nn(C)cc4OCC(F)(F)F)c(F)c3)c2cc1OC [Compound 45] | 500 to 1000 | 1000 to 10000
COc1cc2nccc(Oc3ccc(NC(=O)c4nn(CC(C)O)cc4OCC4CN(C)C4)nc3)c2cc1OC (stereo not shown) [Compound 174] | ≥ 1000 | ≥ 10000
COc1cc2nccc(Oc3ccc(NC(=O)c4nn(C5CC5)cc4OCCC(F)(F)F)nn3)c2cc1OC [Compound 173] | < 500 | 1000 to 10000
CCn1nc(C(=O)Nc2ccc(Oc3ccnc4cc(OC)c(OC)cc34)cn2)c(OCC(F)(F)F)c1C [Compound 1] | < 500 | < 1000
COc1cc2nccc(Oc3ccc(NC(=O)c4nn(C5CCCCC5)cc4OCC(F)(F)F)nc3)c2cc1OC [Compound 69] | < 500 | 1000 to 10000
COc1cc2nccc(Oc3ccc(NC(=O)c4nn(C5CCNC5)cc4OCC(F)(F)F)nc3)c2cc1OC (stereo not shown) [Compound 70] | < 500 | 1000 to 10000
CCCn1cc(OCC(F)(F)F)c(C(=O)Nc2ccc(Oc3ccnc4cc(OC)c(OC)cc34)cc2F)n1 [Compound 28] | < 500 | 1000 to 10000
COc1cc2nccc(Oc3ccc(NC(=O)c4sc(C5CC5)cc4OCC(F)(F)F)nc3)c2cc1OC [Compound 179] | < 500 | < 1000
